Measurements as given in patent publication US20240423215A1, “COMPOSITION FOR COATING PLANT SEED” (priority 2022, published 2024).

Columns and labels:
Assay type in all cases: in vivo
Zea mays [1] = experiment: Cultivation of Zea mays from coated seeds under non-stress conditions (Example 1); conditions: 3 weeks after seeding
Method: Dent corn seeds (100 g; the variety: Snow-dent “Otoha”) were coated with 800 μl of a coating solution containing tryptophan, oxidized glutathione, polyvinyl alcohol, and a coloring dye in water using a coater (SATEC). Coating was performed using either or both of tryptophan in an amount of 0 g, 0.045 g, 0.1225 g, 0.45 g, 5 g, or 50 g and oxidized glutathione in an amount of 0 g, 3 g, 15 g, 150 g, or 300 g per ton of seeds.
Culture soil was filled into 12-cm vinyl pots, and the coated dent corn seeds were seeded at 4 grains/pot. After germination, a differently grown strain was thinned to retain 3 strains in a pot. Cultivation was performed in a glass greenhouse, and inspection was performed 21 days after seeding. The height and the fresh weight of the aboveground part were measured, and the density (the fresh weight of the aboveground part/the height) was determined. The test was repeated 6 times, and the average was determined.
(§1) The measured fresh weight of the aboveground part of plants in groups each treated with different amounts of tryptophan and oxidized glutathione was indicated as the rate of change (%), relative to the fresh weight of the aboveground part of plants in the test group (control group) treated with a coating solution not containing tryptophan or oxidized glutathione. […]

Zea mays [2] = experiment: Cultivation of Zea mays from coated seeds under salt stress conditions (Example 2); conditions: 3 weeks after seeding, fresh weight of aboveground part
Method: Dent corn seeds (100 g; the variety: Snow-dent “Otoha”) were coated with 800 μl of a coating solution containing tryptophan, oxidized glutathione, polyvinyl alcohol, and a coloring dye in water using a coater (SATEC). Coating was performed using either or both of tryptophan in an amount of 0 g, 0.009 g, 0.045 g, 0.1225 g, 0.225 g, 0.45 g, or 5 g and oxidized glutathione in an amount of 0 g, 15 g, or 75 g per ton of seeds.
(§2) Culture soil containing sodium chloride at 6.0 g/l of the soil was filled into 7.5-cm pots, and the coated dent corn seeds were seeded at 1 grain/pot. Cultivation was performed in a glass greenhouse, and inspection was performed 21 days after seeding. The height, the fresh weight of the aboveground part, and the number of leaves were measured, and the density (the fresh weight of the aboveground part/the height) was determined. The test was repeated 9 times, and the average was determined.
The rates of changes (%) in the height, the number of leaves, the fresh weight of the aboveground part, and the density (the fresh weight of the aboveground part/the height) measured or determined for the test groups, relative to those of the control group were determined.

wheat [3] = experiment: Cultivation of wheat from coated seeds under non-stress conditions (Example 3); conditions: 2 weeks after seeding, fresh weight of aboveground part
Method: Wheat seeds (100 g, Quintus) were coated with 800 μl of a coating solution containing tryptophan, oxidized glutathione, polyvinyl alcohol, and a coloring dye in water using a coater (SATEC). Coating was performed using either or both of tryptophan in an amount of 0 g, 0.01 g, 0.25 g, 5 g, or 10 g and oxidized glutathione in an amount of 0 g, 6 g, or 300 g per ton of seeds.
Culture soil was filled into a 96-well cell tray, the coated wheat seeds were seeded at 1 grain/cell, and inspection was performed 2 weeks after seeding. The height and the fresh weight of the aboveground part were measured, and the density (the fresh weight of the aboveground part/the height) was determined. Groups each consisting of 6 plants were subjected to the test, and the test was repeated 4 times.
(§3) The measured fresh weight of the aboveground part of plants in groups each treated with different amounts of tryptophan and oxidized glutathione was indicated as the rate of change (%), relative to the fresh weight of the aboveground part of plants in the test group (control group) treated with a coating solution not containing tryptophan or oxidized glutathione.
The density (the fresh weight of the aboveground part/the height) of the test groups was indicated as the rate of change (%), relative to the density of the control group.

wheat [4] = experiment: Cultivation of wheat from coated seeds under salt stress conditions (Example 4); conditions: fresh weight of aboveground part
Method: Wheat seeds (100 g; the variety: Yumechikara) were coated with 800 μl of a coating solution containing tryptophan, oxidized glutathione, polyvinyl alcohol, and a coloring dye in water using a coater (SATEC). Coating was performed using either or both of tryptophan in an amount of 0 g, 0.225 g, 2.25 g, 5 g, 10 g, or 50 g and oxidized glutathione in an amount of 0 g, 15 g, or 300 g per ton of seeds.
as §2, with “4.0” for “6.0”, “wheat” for “dent corn”, “16” for “21”, “height and” for “height,”, “part” for “part, and the number of leaves”
as §1

soybean = experiment: Cultivation of soybean from coated seeds under salt stress conditions (Example 6); conditions: 3 weeks after seeding, fresh weight of aboveground part
Method: (§4) Soybean seeds (100 g; the variety: Fukuyutaka) were coated with 800 μl of a coating solution containing tryptophan, oxidized glutathione, polyvinyl alcohol, and a coloring dye in water using a coater (SATEC). Coating was performed using either or both of tryptophan in an amount of 0 g, 0.045 g, 0.225 g, 0.45 g, or 5 g and oxidized glutathione in an amount of 0 g, 15 g, or 75 g per ton of seeds.
as §2, with “1.0” for “6.0”, “soybean” for “dent corn”, “The” for “The height, the”, “part,” for “part, and the number of leaves were measured, and”, “height), and the dry weight of the underground part were measured.” for “height) was determined.”
as §1

rice = experiment: Cultivation of rice from coated seeds under non-stress conditions (Example 7); conditions: 3 weeks after seeding
Method: as §4, with “Rice” for “Soybean”, “Emimaru)” for “Fukuyutaka)”, “2.25” for “0.045 g, 0.225 g, 0.45”, “g” for “g, 15 g,”
Culture soil was filled into 12-cm vinyl pots, and the coated rice seeds were seeded at 5 grains/pot. Cultivation was performed in a glass greenhouse, and the fresh weight of the aboveground part was inspected 21 days after seeding. The test was repeated 6 times, and the average was determined.
as §3

Zea mays [5] = experiment: Cultivation of Zea mays from seeds coated with tryptophan and reduced glutathione under non-stress conditions (Comparative Example 1); conditions: 3 weeks after seeding, Trp 0.225 g and/or GSH 1-75 g per MT-seeds, FIG. 14
Method: Dent corn seeds (100 g; the variety: Snow-dent “Otoha”) were coated with 800 μl of a coating solution containing 0.225 g of tryptophan per ton of seeds (i.e., MT-seeds), 0, 1, 5, 15, or 75 g of reduced glutathione per MT-seeds, polyvinyl alcohol, and a coloring dye in water using a coater (SATEC).
Culture soil was filled into 12-cm vinyl pots, and the coated dent corn seeds were seeded at 4 grains/pot. After germination, a differently grown strain was thinned to retain 3 strains in a pot. Cultivation was performed in a glass greenhouse, and inspection was performed 21 days after seeding. The fresh weight of the aboveground part was measured. The test was repeated 6 times, and the average was determined.

Zea mays [6] = experiment: Cultivation of Zea mays from seeds coated with tryptophan and reduced glutathione under salt stress conditions (Comparative Example 2); conditions: salt stress (NaCl 6.0 g/l soil); 3 weeks after seeding; Trp 0.225 g and/or GSH 1-75 g per MT-seeds; FIG. 15
Method: Dent corn seeds (100 g; the variety: Snow-dent “Otoha”) were coated with 800 μl of a coating solution containing 0.225 g of tryptophan per MT-seeds, 0, 1, 5, 15, or 75 g of reduced glutathione per MT-seeds, polyvinyl alcohol, and a coloring dye in water using a coater (SATEC).
Culture soil containing sodium chloride at 6.0 g/l of the soil was filled into 7.5-cm pots, and the coated dent corn seeds were seeded at 1 grain/pot. Cultivation was performed in a glass greenhouse, and inspection was performed 21 days after seeding. The fresh weight of the aboveground part was measured. The test was repeated 9 times, and the average was determined.
The fresh weight of the aboveground part measured for the test groups treated with different amounts of tryptophan and reduced glutathione was indicated as the rate of change (%), relative to that of the test group (the control group) treated with a coating solution not containing tryptophan or reduced glutathione.

Zea mays [7] = experiment: Field test of Zea mays, ear yield (Example 8); conditions: 0.25 g tryptophan and/or 75 g GSSG per ton of seeds
Method: As a control group, seeds without coating were prepared.
• Location: the Wilderen MAR field, the Kingdom of Belgium • Variety: Like IT • Date of seeding: Apr.
Cultivation was performed in accordance with the conventional fertilization management technique and pest management technique, and the yield was inspected. • Inspection of yield: 120 strains/group; the number of repetition: 4

wheat [8] = experiment: Cultivation of wheat from coated seeds under low-temperature stress conditions (Example 9); conditions: 6 weeks after seeding
Method: Wheat seeds (100 g; the variety: Yumechikara) were coated with 800 μl of a coating solution containing tryptophan, oxidized glutathione, polyvinyl alcohol, and a coloring dye in water using a coater (SATEC). Coating was performed using either or both of 5 g of tryptophan per MT-seeds and 75 g of oxidized glutathione per MT-seeds. Culture soil was filled into 7.5-cm pots, and the coated wheat seeds were seeded at 1 grain/pot. Cultivation was performed in a glass greenhouse before germination, the germinated plants were transferred to and cultivated in an artificial climate chamber with a diurnal period of 12 hours set at 10° C. and a nocturnal period of 12 hours set at 5° C., and inspection was performed 6 weeks after seeding. The dry weight of the aboveground part and the dry weight of the underground part were measured. The test was repeated 8 times, and the average was determined.
In the table, “%” indicates a value calculated relative to the weight without treatment, which is designated as 100%. […] With the use of glutathione in combination with tryptophan, in addition, the dry weight of the aboveground part was increased by 17% and the dry weight of the underground part was increased by 24%, relative to the control group. Such increase was significant. […] As described above, use of glutathione in combination with tryptophan would exert effects of promoting the healthy growth under low-temperature stress conditions.

[9] = low-temperature stress (10° C./5° C.), Trp 5 g and/or GSSG 75 g per MT-seeds
[10] = low-temperature stress, Trp 5 g and/or GSSG 75 g per MT-seeds

## N[C@@H](Cc1c[nH]c2ccccc12)C(=O)O [tryptophan, L-tryptophan]
Zea mays [1]; either or both of 0.1225 g tryptophan and 150 g GSSG per ton of seeds
  increase in the fresh weight of the aboveground part compared with no treatment: 3%
Zea mays [1]; fresh weight of aboveground part
  effects of promoting the initial growth: No effects of promoting the initial growth were attained
Zea mays [2]
  effects of promoting the initial growth: No effects of promoting the initial growth were attained
Wheat [3]
  effects of promoting the initial growth: No effects of promoting the initial growth were attained
Wheat [4]
  effects of promoting the initial growth: No effects of promoting the initial growth were attained
soybean
  effects of promoting the initial growth: No effects of promoting the initial growth were attained
rice
  effects of promoting the initial growth: Effects of promoting the initial growth were attained to some extent
Zea mays [5]
  rate of change in the fresh weight of the aboveground part relative to control group: 4%
Zea mays [6]
  rate of change in the fresh weight of the aboveground part relative to control group: 1%
Zea mays [7]; FIG. 16
  ear yield relative to the control group without coating (100%): 100.4%
Zea mays [7]; relative to control group
  increase in the ear yield: An increase was not observed in the yield
Wheat [8]; [9]
  Dry weight of aboveground part: 0.24 g
  Dry weight of underground part: 0.08 g
Wheat [8]; low-temperature stress
  effects of promoting the initial growth: not observed
Wheat [8]; [10]
  Dry weight of aboveground part, relative to without treatment (100%): 97%
  Dry weight of underground part, relative to without treatment (100%): 101%
